Values after ≈ are worked out from the molar mass of the structure shown.
How the values were obtained:
Water solubility = assay type: physicochemical; conditions: for solubility / Solubility in g per l water at 25° C, white gel / thick syrup: water
Method: It is primarily for the purpose of providing water solubility to the steryl monosaccharides that the compounds of this invention, the dicarboxylic acid half ester derivatives and their salts, were prepared.
A solution of succinic anhydride (8.6 g, 0.086 mole) and anhydrous sitosteryl β-D-glucoside (24.7 g, 0.043 mole) in anhydrous pyridine (90 ml) was refluxed for 30 minutes and then left to stand for 20 hrs before it was poured into vigorously stirred conc. hydrochloric acid (104 ml) at ice temperature. The mixture was allowed to stand for 2 hrs before the precipitated hemiester was gravity filtered. The collected solid, washed with iced water until the washings were neutral, was dried in a vacuum oven and a small sample of this was dried to constant weight for a C and H analysis.
The standard preparation of the sterolin dicarboxylic acid hemiester salts illustrated by the preparation of the disodium salt of sitosteryl β-D-glucoside dihemisuccinate. The wet sitosteryl β-D-glucoside dihemisuccinate washed clear of hydrochloric acid as described in Example 1 was transferred quantitatively into a sodium bicarbonate solution (200 ml water; 7.2 g or 0.086 mole NaHCO3). This mixture cooled to 0° C. was slowly poured with vigorous stirring into ice cold acetone (2000 ml) and the white precipitate of the salt was allowed to settle over 18 hrs in an ice chest before it was filtered under suction. The moist salt was thoroughly stirred into ice cold acetone (200 ml), the slurry suction filtered and the filter cake washed with cold ether before the product was dried in a vacuum oven at 40° C. for 48 hrs followed by 2×1 minute heating in a microoven.

[1] = system: rat paw-oedema / inflammation (Brewer's Yeast); assay: Anti-inflammatory effect, Brewer's Yeast rat paw oedema, oral administration; assay type: in vivo, male Sprague-Dawley rats
Method: Twenty male Sprague-Dawley rats, (original supplier: Blue Spruce; Altamont U.S.A.) weighing 240-260 g, were acclimatized for at least 10 days to the test environment.
(§1) The test substance was suspended in a 1% m/v Tylose® solution made up with distilled water. The selected test doses of the compounds were administered by force feeding at the rate of 1.0 ml/100 g body weight 24.0 hrs and 1.0 hour before the intra-plantar administration of the phlogegenic agent. Brewer's Yeast served as the inflammation-inducing substance and was injected at the rate of 0.1 ml of a 2% suspension made up in sterile saline into the right hind paw. (The left hind paw was injected with 0.1 ml saline only and served as the control foot.)
(§2) Ten animals were killed 5 hours after the challenge in order to determine the effect of the test substance on the accute inflammatory process. The remaining members of the group were sacrificed after 24 hours and used to assess the effect of the test compound on the secondary, residual inflammatory action of yeast. The average amount of oedema and swelling produced in the right foot by yeast was obtained by subtracting the weight of the foot from the weight obtained of the control (saline) side. The results obtained from the treated groups were compared to the relevant control groups which received a similar volume of the aqueous Tylose®-solution only and the difference was expressed as a percentage increase or decrease over the control value.

[2] = in vivo, ip
[3] = system: rat paw-oedema / inflammation (Brewer's Yeast); assay: Anti-inflammatory effect, Brewer's Yeast rat paw oedema, intraperitoneal administration; assay type: in vivo, male Sprague-Dawley rats
Method: as §2, with “side.” for “side. The results obtained from the treated groups were compared to the relevant control groups which received a similar volume of the aqueous Tylose®-solution only and the difference was expressed as a percentage increase or decrease over the control value.”
Groups of 20 male Sprague-Dawley rats, weighing 250 (±10 g) were acclimatized to the test environment. The test compound was made up in physiological saline at concentrations allowing the selected dose to be administered intraperitoneally at the rate of 0.1 ml/100 g body weight.
The test agent was administered 1.0 hour before the challenge with Brewer's Yeast. Otherwise the test procedure described under (a) was followed.

[4] = Oral toxicity studies in rats (acute and prolonged daily dosing); assay type: in vivo
Method: (§3) Preferred daily doses of the compounds of this invention depend on the purpose for which they are used, administered or applied and also whether they are given by oral or parenteral routes or applied topically. […] They may be toxic when administered in large amounts and therefore the oral route is preferred. […] If taken for prophylactic purposes by healthy individuals a daily dose of 0.01-0.1 mg is adequate, although this may be raised to 0.2-1 mg for elderly people. Depending on the severity of a degenerative disease daily doses of 0.3-44 mg may be used for initial treatment until on improvement of the particular condition, a maintenance dose of 0.03-0.6 mg per day is advisable. Lower daily doses are required when these compounds are administered parenterally (e.g. via an intravenous drip). It should be noted that with respect to animals a preferred dose is difficult to predict since it is known that marked differences exist between species and even various breeds or strains of animals in their ability to utilise or react to steroidal glycosides (44-46).

[5] = Acute toxicity after a single oral or parenteral dose; assay type: in vivo, male Sprague-Dawley rats; conditions: intraperitoneal, after 7 days
Method: as §1
Male rats of Sprague-Dawley strain and with a weight of 250-350 g were injected intraperitoneally with 0.1-0.5 ml/100 g body weight of an aqueous solution or suspension. Oral administration was carried out as described under (a). Examination of the acute toxicity was carried out after 7 days.

[6] = Oral toxicity studies in primates (acute and prolonged daily dosing); assay type: in vivo
Method: as §3

CC[C@H](CC[C@@H](C)[C@H]1CC[C@H]2[C@@H]3CC=C4C[C@@H](O[C@@H]5O[C@H](CO)[C@@H](O[C@H]6O[C@H](CO)[C@@H](O)[C@H](O)[C@H]6O)[C@H](O)[C@H]5O)CC[C@]4(C)[C@H]3CC[C@]12C)C(C)C [S.M., sitosteryl β-D-maltoside, reference compound]
solubility (Water solubility): 0.38 mg/mL (≈ 514 µM)

disodium salt of sitosteryl β-D-glucoside dihemisuccinate [S.G. dihemisuccinate Na2 salt]
Average percentage reduction of rat paw-oedema / inflammation ([1]; 500 mg/kg given 24,0 and 1,0 hour before challenge, after 5 hours): 8,5% | Average percentage reduction of rat paw-oedema / inflammation ([1]; 500 mg/kg given 24,0 and 1,0 hour before challenge, after 24 hours): 10,7% | Average percentage reduction of rat paw-oedema / inflammation ([1]; 1000 mg/kg given 24,0 and 1,0 hour before challenge, after 5 hours): 14,5% | Average percentage reduction of rat paw-oedema / inflammation ([1]; 1000 mg/kg given 24,0 and 1,0 hour before challenge, after 24 hours): 18,5% | Adverse effects and tissue toxicity [2]: fewer adverse effects coupled with a lower tissue toxicity | Average percentage reduction of rat paw-oedema / inflammation ([3]; single dose 25 mg/kg 1 hour before challenge, after 5 hours): 27% | Average percentage reduction of rat paw-oedema / inflammation ([3]; single dose 25 mg/kg 1 hour before challenge, after 24 hours): 14% | Average percentage reduction of rat paw-oedema / inflammation ([3]; single dose 50 mg/kg 1 hour before challenge, after 5 hours): 47% | Average percentage reduction of rat paw-oedema / inflammation ([3]; single dose 50 mg/kg 1 hour before challenge, after 24 hours): 35% | Solubility in g per l water at 25° C, white gel / thick syrup (Water solubility): 5×10^2 g per l | solubility (Water solubility): 2000 mg/mL

CC[C@H](CC[C@@H](C)[C@H]1CC[C@H]2[C@@H]3CC=C4C[C@@H](O[C@@H]5O[C@H](CO)[C@@H](O)[C@H](O)[C@H]5O)CC[C@]4(C)[C@H]3CC[C@]12C)C(C)C [S.G., sitosteryl β-D-glucoside, reference compound]
solubility (Water solubility): 0.009 mg/mL (≈ 15.6 µM)

sitosteryl β-D-glucoside dihemisuccinate [S.G. dihemisuccinate]
Tolerance of prolonged daily doses ([4]; rat, in vivo): well tolerated | Acute toxicity studies, toxic effects ([4]; rats, oral, even in excess of 1000-2000 mg/kg): no toxic effects | Solubility (state or result in words) (Water solubility): colloidal | Solubility in g per l water at 25° C, white gel / thick syrup (Water solubility): 5×10^2 g per l | solubility (Water solubility): 1,25×10^3 g/l | Acute toxicity after a single dose (% at dose) ([5]; 100 mg/kg): 25% | Tolerance of prolonged daily doses ([6]; in vivo): well tolerated | Acute toxicity studies, toxic effects ([6]; primates, oral, even in excess of 1000-2000 mg/kg): no toxic effects

CCC(CCC(C)C1CCC2C3CC=C4CC(OC5OC(COC(=O)CCC(=O)O)C(OC(=O)CCC(=O)O)C(OC(=O)CCC(=O)O)C5OC(=O)CCC(=O)O)CCC4(C)C3CCC12C)C(C)C (stereo not drawn) [S.G. tetrahemisuccinate]
Reduction of the inflammatory response in the rat-paw oedema trials in % ([3]; (50) mg/kg body weight, TABLE 2, time not given): -46.3% | Acute toxicity after a single dose (% at dose) ([5]; 100 mg/kg): 20% | Acute toxicity after a single dose (% at dose) ([5]; 200 mg/kg): 100%

— patent US4254111A, “Sterolin products” (Roecar Holdings (Netherlands Antilles) NV, priority 1978, dated 1981)
